Test results published in patent US7344884B2, “Peptides promoting cell adherence, growth and secretion” (Becton, Dickinson and Company, priority 2001, dated 2008).
Marks after values point to notes of the source that are not given here.

B1: Collagen-III: extracellular matrix (ECM) control from Becton Dickinson Labware (protein, UniProt P02461 154-1221, looked up)
Collagen alpha-1(III) chain: QYDSYDVKSGVAVGGLAGYPGPAGPPGPPGPPGTSGHPGSPGSPGYQGPPGEPGQAGPSGPPGPPGAIGPSGPAGKDGESGRPGRPGERGLPGPPGIKGPAGIPGFPGMKGHRGFDGRNGEKGETGAPGLKGENGLPGENGAPGPMGPRGAPGERGRPGLPGAAGARGNDGARGSDGQPGPPGPPGTAGFPGSPGAKGEVGPAGSPGSNGAPGQRGEPGPQGHAGAQGPPGPPGINGSPGGKGEMGPAGIPGAPGLMGARGPPGPAGANGAPGLRGGAGEPGKNGAKGEPGPRGERGEAGIPGVPGAKGEDGKDGSPGEPGANGLPGAAGERGAPGFRGPAGPNGIPGEKGPAGERGAPGPAGPRGAAGEPGRDGVPGGPGMRGMPGSPGGPGSDGKPGPPGSQGESGRPGPPGPSGPRGQPGVMGFPGPKGNDGAPGKNGERGGPGGPGPQGPPGKNGETGPQGPPGPTGPGGDKGDTGPPGPQGLQGLPGTGGPPGENGKPGEPGPKGDAGAPGAPGGKGDAGAPGERGPPGLAGAPGLRGGAGPPGPEGGKGAAGPPGPPGAAGTPGLQGMPGERGGLGSPGPKGDKGEPGGPGADGVPGKDGPRGPTGPIGPPGPAGQPGDKGEGGAPGLPGIAGPRGSPGERGETGPPGPAGFPGAPGQNGEPGGKGERGAPGEKGEGGPPGVAGPPGGSGPAGPPGPQGVKGERGSPGGPGAAGFPGARGLPGPPGSNGNPGPPGPSGSPGKDGPPGPAGNTGAPGSPGVSGPKGDAGQPGEKGSPGAQGPPGAPGPLGIAGITGARGLAGPPGMPGPRGSPGPQGVKGESGKPGANGLSGERGPPGPQGLPGLAGTAGEPGRDGNPGSDGLPGRDGSPGGKGDRGENGSPGAPGAPGHPGPPGPVGPAGKSGDRGESGPAGPAGAPGPAGSRGAPGPQGPRGDKGETGERGAAGIKGHRGFPGNPGAPGSPGPAGQQGAIGSPGPAGPRGPVGPSGPPGKDGTSGHPGPIGPPGPRGNRGERGSEGSPGHPGQPGPPGPPGAPGPCCGGVGAAAIAGIGGEKAGGFAPYYG

Tested on: MC3T3 cells
Assay: Oxygen biosensor assay of adherence and growth of MC3T3 cells on peptide-coated wells
Format: cell-based, murine
Settings: for Abs at 590 nm (relative oxygen consumption), MDL-400 Library / relative oxygen consumption (Absorbance at 590 nm) / Abs at 590 nm (relative oxygen consumption), Controls: 86 hour time point; for Abs at 590 nm (relative oxygen consumption), MDL-400 Library: single peptide, 50 µl of 1 mM stock dried in well, value normalized to the well's initial reading; for impact on MC3T3 growth (result in words): peptide or control adsorbed to surface, compared with uncoated surface or controls; for Abs at 590 nm (relative oxygen consumption), Controls: 25 µl stock of ECM or known peptide control dried in well, same plate
Description: To identify peptides in a particular library which positively affected cell growth in cell culture, the library was screened in a growth assay. The selected cells were anchorage-dependent MC3T3 cells, which were grown on tissue culture surfaces which had been pre-coated with peptides of the present invention. The screening medium used to evaluate peptides in the library was a low serum medium allowing evaluation of peptide effects with low interference from undefined materials present in the medium. In the present work, growth of MC3T3 cells was assessed in the presence and absence of the peptides in the library which were present in the form of a dried film on a tissue culture substrate. Growth was evaluated in a basal medium rich in amino acids and containing the necessary vitamins, metals and simple carbon source. After an appropriate incubation time, growth of each peptide-supplemented culture is compared to growth of the unsupplemented culture. The extent of growth was evaluated using a Becton Dickinson oxygen sensor to detect oxygen consumption by the cells. The cell number in each well containing a particular peptide was then assessed indirectly with a flurometer which measured fluorescence generated from a fluoroescent dye using band-pass filters of 465 nm for excitation and 590 nm for emission.
Briefly, the oxygen biosensor is based upon the fluoroscence of ruthenium dye which is quenched in the presence of oxygen. The dye is immobilized within an inert but highly permeable silicone matrix located at the bottom of microtiter wells. […] (Wodnicka, M., Guarino, R. D., Hemperly, J. J. Temmins, M. R., Stitt, D. and Pitner, J. B. (2000) J. of Biomolecular Screening 5:141-152)
MC3T3-E1 is a clonal line of murine calvaria-derived osteoblast (establishement of a clonal osteogenic Cell Line from Newborn Mouse Calvaria in Jpn J. Oral Biol 23, 899 (1981)).
MC3T3 cells were maintained in αMEM (GIBCO Catalog No: 12561) supplemented with 2% fetal calf serum (FCS, inactivated) and 100 units or μg/ml of penicillin/streptomycin for one month prior to use. Cells were routinely seeded at a density of approximately 1×10^4 cells per 20 ml culture media which was placed in a 250 ml canted neck polystyrene tissue culture treated flask (Becton Dickinson). Cells were cultured until approximately 2×10^6 cells were obtainable from each flask, which were resuspended in 5 ml of αMEM with 2% FCS for a final cell concentration of about 5×10^4 cells per 150 μl for peptide screening.
For determining the biological effects of library peptides and appropriate controls on MC3T3 cells, cells (5×10^4/150 μl) were grown in an 96 well oxygen sensor plate treated as described below:
Peptides for screening were obtained from either a MDL-400 library or an MDL-100 library. Fifty microliters of peptides at a 1 mM stock concentration in phosphate buffered saline were placed in wells of a 96 well oxygen sensor plate and dried in a reverse flow air hood overnight […].
Vitrogen-collagen-I was obtained from Cohesion (Palo Alto, Calif., Catalog No. FXP-019) and fibronectin was obtained from Sigma (Catalog No. F-0895). All other extracellular matrix (ECM) compounds were obtained from Becton Dickinson Labware, (Bedford, Mass.). Polylysine was obtained from Becton Dickinson Labware and RGDSP-rhodamine was from AnaSpec Inc. (San Jose, Calif.). Extracellular matrix components (ECM) or known peptides were used at the following stock concentrations:
Twenty-five microliters of stock concentrations of controls and 25 μl of phosphate buffered saline were placed in wells of a 96 well oxygen sensor plate and dried overnight as described above.
Cells grown on 96 well oxygen sensor plates treated as described above were monitored for growth using a Becton Dickinson oxygen biosensor. Growth was monitored at the following time points: 1 hours, 24 hours, 32 hours, 48 hours and 86 hours. Media was changed every three days. […]

Molecule	Abs at 590 nm (relative oxygen consumption), MDL-400 Library	impact on MC3T3 growth (result in words)	Abs at 590 nm (relative oxygen consumption), Controls	other results
AFFKI (Synthetic peptide selected for biological activity) [SEQ ID NO:6]	2.01*	significant difference in growth		
AFKIF (Synthetic peptide selected for biological activity) [SEQ ID NO:9]	2.78*	significant difference in growth		relative oxygen consumption (Absorbance at 590 nm): 2.78
AKIFF (Synthetic peptide selected for biological activity) [SEQ ID NO:8]	2.08*	significant difference in growth		
Collagen-IV: extracellular matrix (ECM) control from Becton Dickinson Labware [reference compound]			3.14	relative oxygen consumption (Absorbance at 590 nm): 3.14
Collagen-V: extracellular matrix (ECM) control from Becton Dickinson Labware [reference compound]			1.76	
FAKFI (Synthetic peptide selected for biological activity) [SEQ ID NO:11]	2.06*	significant difference in growth		
FIFAK (Synthetic peptide selected for biological activity) [SEQ ID NO:3]	2.08*	significant difference in growth		
FIKFG (Synthetic peptide selected for biological activity) [SEQ ID NO:2]	2.38*	significant difference in growth		impact on MC3T3 growth (result in words) (listed as FIKFG): positive
Fibronectin [reference compound]			2.12	
IFFKG (Synthetic peptide selected for biological activity) [SEQ ID NO:1]	2.53*	significant difference in growth		relative oxygen consumption (Absorbance at 590 nm): 2.53; impact on MC3T3 growth (result in words) (listed as IFFKG): positive
KFAFI (Synthetic peptide selected for biological activity) [SEQ ID NO:10]	2.11*	significant difference in growth		
Laminin [reference compound]			2.65	relative oxygen consumption (Absorbance at 590 nm): 2.65
Polylysine [reference compound]			1.08	
QVVAK (Synthetic peptide selected for biological activity) [SEQ ID NO:4]	2.11*	significant difference in growth		
RGDSP-rhodamine [reference compound]			1.25	
VFPFK (Synthetic peptide selected for biological activity) [SEQ ID NO:7]	2.06*	significant difference in growth		
B1			1.45	
